Measured values: patent US20050154537A1, “Methods, program products, and systems for single and multi-agent dosing and other related methods” (priority 2003, published 2005)

Assays:
Assay type in all cases: in vivo
[1] = test system: Platelets; test: Lookup table: marker validity (nadir) window, Platelets; details: days elapsed between current dose and marker; for Platelets LL: lower limit of nadir range; for Platelets UL: upper limit of nadir range
Excerpt: (§1) A lookup table has been constructed (see above example), in the form of a table, to represent the relationship of each trial Agent and its qualified Clinical Markers. This table includes information regarding the Maximum Dose and the Inverse Marker Applicability for each Agent. The gray cells on the Cycle Dose Modifier indicate these values.
(§2) The table also includes information regarding the nadir of applicability for each Agent—Marker combination. The range, in days and indicated as the Lower Limit and Upper limit, has been determined by calculating a percentage (20%) above and below the true nadir value when only a single value is known. Otherwise, the upper and lower nadir values are used. […] The values of Upper and Lower limits is shown as a property of the Association between Markers and Agents. The Relevancy of a Marker can be computed using the lookup table by comparing the number of days elapsed between the date of the application of the current dose and the date on which the Marker was taken to the upper and lower values for that Agent Marker Association. If the elapsed days are greater than or equal to the lower limit and less than or equal to the upper limit, then the calculations provided by the Cycle Dose Modifier are said to be relevant and thereby applicable as indicated in the yellow Marker Validity cell. The Relevancy of Cycle Dose Modifier Calculations for Agent 1 is based on the Validity of Marker for Agent 1 calculated by: =IF(and((($B13−B6)>=VLOOKUP(B$3,Validity!$A$3:$K$8,10)),((B$13−B6)<=VLOOKUP(B$3,Validity!$A$3:$K$8,11))),“valid”,“invalid”)

[2] = test system: Hemoglobin (Hgb); test: Lookup table: marker validity (nadir) window, Hemoglobin (Hgb); details: days elapsed between current dose and marker; for Hemoglobin (Hgb) LL: lower limit of nadir range; for Hemoglobin (Hgb) UL: upper limit of nadir range
Excerpt: as §1, §2

[3] = test system: Neutrophil Count (ANC); test: Lookup table: marker validity (nadir) window, Neutrophil Count (ANC); details: days elapsed between current dose and marker; for Neutrophil Count (ANC) LL: lower limit of nadir range; for Neutrophil Count (ANC) UL: upper limit of nadir range
Excerpt: as §1, §2

[4] = test system: LDL; test: Non-Pharm Example 2: triplet Lipitor, aerobics and diet, LDL marker
Excerpt: Set at an initial value of 1, this value is then adjusted based upon actual case scenarios with a full data set to adjust the value to identify the contribution to the toxicity or efficacy until the actual value is achieved. It can be used to modify dose based upon non-pharmacologic effects such as diet, exercise and activity as determined by the prescriber. A non-pharmacologic three-part combination therapy example could include a cholesterol lowering agent, exercise and a restrictive diet. In place of dose the exercise value would be measured in ‘METS’ (Metabolic Equivalent of oxygen consumption) or the dietary prescription in calories or grams of cholesterol.
Triplet, Agent One: Pharmacologic, Agent Two: Non-Pharmacologic (Exercise), Agent Three: Diet (Grams of Cholesterol)

[5] = test system: LDL; test: Non-Pharm Example 1: doublet Lipitor and aerobics, LDL marker
Excerpt: Efficacy/Toxicity Determinant Agent 2 (Gemzar) (ETD2) is a value determined by the prescriber. Set at an initial value of 1, this value is then adjusted based upon actual case scenarios with a full data set to adjust the value to identify the contribution to the toxicity or efficacy until the actual value is achieved. It can be used to modify dose based upon non-pharmacologic effects such as diet, exercise and activity as determined by the prescriber. A non-pharmacologic two-part combination therapy example could include a cholesterol lowering agent and exercise or cholesterol lowering agent and a restrictive diet. In place of dose the exercise value would be measured in ‘METS’ (Metabolic Equivalent of oxygen consumption) or the dietary prescription in calories or grams of fat or cholesterol.
Doublet Agent One: Pharmacologic, Agent Two:Non-Pharmacologic (Exercise)

[6] = test system: INR; test: Single agent cycle dose modifier, warfarin sodium patient example; details: for Current Level of Efficacy/CLTE: current cycle total dose 57, dose Oct. 21, marker Oct. 26, 2004; for Previous Level of Efficacy/PLTE: previous cycle total dose 60, seven-day cycle
Excerpt: Warfarin Sodium (coumadin) is used in this example as a single agent. Table 1 illustrates a method of revising a drug dose in treating a patient with one pharamcologic […] modality to optimize pharmacologic outcome and to reduce the risk of an adverse drug event while assessing the clinical relevancy and validity of the measured surrogate marker.
In Table 1, Previous Cycle Total Dose (PCTD) is a value directly entered without new calculation. It is the cumulative amount of the agent administered during the previous treatment cycle as defined by the total amount of drug given over a fixed period of time, such as in chemotherapy, the total amount, e.g., mg/m^2, administered throughout the defined regimen period. In this single agent therapy example for chronic disease management, that is, prevention of venous thrombosis with warfarin sodium, the cycle becomes the total amount of warfarin sodium, in milligrams, administered over a seven-day period. The period is determined when the modifier is constructed.
Previous Level of Toxicity-Efficacy (PLTE) is a value directly entered such as from a lab report. It is the numerical value of a marker of toxicity or efficacy reported at the previous dose cycle adjustment (evaluated at a specified elapsed time sufficient to capture the nadir of the dose effect). The surrogate marker is selected when the dose modifier is constructed.
Current Level of Toxicity-Efficacy (CLTE) is also a value directly entered such as from a lab report. It is the numerical value of the marker of toxicity or efficacy reported with the current dose cycle. The surrogate marker is that value that illustrates the expression of the toxicity or efficacy of the agent on a specific and pre-selected value determined when the dose modifier is constructed. The value is selected based upon the agent, its pharmacologic properties and the disease condition under treatment. The confidence or validity of the marker is based upon its maturity of effect in that a nadir or cycle of effect is dynamic and may vary based upon the time span between receipt of the agent and sampling of the value. Therefore the value may be valid or invalid based upon this timing factor. If invalid, then the dose adjustment cannot be made. If valid, then the value is fully appreciated and the dose modification can be calculated. The surrogate marker is selected when the dose modifier is constructed.
Expected Current Level (ECL) is a comparative operator used to illustrate the mathematical expectation of the patient's response to the actual patient response to classify their individual response characteristics. […]

SMILES | Platelets LL [1] [days] | Platelets UL [1] [days] | Hemoglobin (Hgb) LL [2] [days] | Hemoglobin (Hgb) UL [2] [days] | Neutrophil Count (ANC) LL [3] [days] | Neutrophil Count (ANC) UL [3] [days] | Current Level of Efficacy CLTEM1 ([4]; current cycle Lipitor 300.00 with aerobics 168/week and diet 182/week, marker Dec. 05, 2004) | Previous Level of/PLTEM1 ([4]; previous cycle Lipitor 220.00 with aerobics 140/week and diet 210/week) | Current Level of Efficacy/CLTEM1 ([5]; current cycle Lipitor 280 with aerobics 168/week, marker Dec. 05, 2004) | Previous Level of Efficacy/PLTEM1 ([5]; previous cycle Lipitor 210 with aerobics 140/week) | Current Level of Efficacy/CLTE ([6]; Comparison Cycle column) | Previous Level of Efficacy/PLTE ([6]; Comparison Cycle column) | Current Level of Efficacy/CLTE ([6]; Current Cycle column) | Previous Level of Efficacy/PLTE ([6]; Current Cycle column)
N.N.O=C([O-])C1(C(=O)[O-])CCC1.[Pt+2] [Carboplatin] | 17 | 25 | 14 | 21 | 17 | 25 |  |  |  |  |  |  |  | 
N.N.[Cl][Pt][Cl] [Cisplatin] | 18 | 23 | 18 | 23 | 18 | 23 |  |  |  |  |  |  |  | 
Nc1ccn([C@@H]2O[C@H](CO)[C@@H](O)C2(F)F)c(=O)n1 [Gemzar] | 7 | 10 | 7 | 10 | 7 | 10 |  |  |  |  |  |  |  | 
CC(C)c1c(C(=O)Nc2ccccc2)c(-c2ccccc2)c(-c2ccc(F)cc2)n1CC[C@@H](O)C[C@@H](O)CC(=O)O [Lipitor] |  |  |  |  |  |  | 122 | 140 | 120 | 150 |  |  |  | 
CC(=O)O[C@@]12CO[C@@H]1C[C@H](O)[C@@]1(C)C(=O)[C@H](O)C3=C(C)[C@@H](OC(=O)[C@H](O)[C@@H](NC(=O)OC(C)(C)C)c4ccccc4)C[C@@](O)([C@@H](OC(=O)c4ccccc4)[C@H]21)C3(C)C [Taxotere] | 6 | 8 | 8 | 11 | 6 | 8 |  |  |  |  |  |  |  | 
CC(=O)CC(c1ccccc1)c1c(O)c2ccccc2oc1=O (centres unmarked) [Warfarin Sodium] |  |  |  |  |  |  |  |  |  |  | 3.80 | 4.50 | 3.80 | 4.50
